Assays:
Format in all cases: cell-based
[1] = system: L. amazonensis stationary promastigotes; test: In vitro antileishmanial activity, stationary promastigotes (MTT)
Procedure: (§1) L. amazonensis (IFLA/BR/1967/PH-8), L. braziliensis (MHOM/BR/1975/M2903), and L. infantum (MHOM/BR/1970/BH46) were used as parasites. Stationary promastigotes were grown at a 24 °C in complete Schneider’s medium (Sigma-Aldrich, St. Louis, MO, USA), which was composed of medium plus 20% (v/v) heat-inactivated fetal bovine serum (FBS; Sigma-Aldrich, USA) and 20 mM L-glutamine with a pH of 7.4 [139]. To obtain the axenic amastigotes, 10^9 stationary promastigotes were washed three times in sterile phosphate-buffered saline (PBS 1X and incubated in 5 mL FBS for 48 h (L. amazonensis and L. braziliensis) and 72 h (L. infantum), respectively, at 37 °C. Parasites were washed in cold PBS 1x, and their morphology was evaluated after staining using the Giemsa method in an optical microscope, as previously described.
(§2) AmpB (0 to 10.8 µM; Sigma-Aldrich, USA) was used as control. Cell viability was assessed through 3-(4.5-dimethylthiazol-2-yl)-2.5-diphenyl tetrazolium bromide (Sigma-Aldrich, USA) method. Optical density (OD) values were measured in a microplate spectrophotometer (Molecular Devices, Spectra Max Plus, San Jose, CA, USA) at 570 nm. IC50 values were calculated by sigmoidal regression of dose–response curves in Microsoft Excel software (version 10.0). Two-tailed Student’s t-tests (p < 0.05) were used to compare IC50 values between malvidin and echioidinin, assessing significant differences in inhibitory activity.

[2] = system: L. infantum stationary promastigotes; test: as above
Procedure: as §1, §2

[3] = system: L. braziliensis stationary promastigotes; test: as above
Procedure: as §1, §2

[4] = system: L. infantum-infected murine macrophages; test: Treatment of infected macrophages; settings: 48 h
Procedure: (§3) To evaluate the efficacy of malvidin or echioidinin for treating infected macrophages, murine cells (5 × 10^5) were plated on round glass coverslips in 24-well plates in RPMI 1640 medium supplemented with 20% (v/v) FBS and 20 mM L-glutamine at a pH of 7.4 and incubated for 24 h at 37 °C in 5% CO2. Stationary promastigotes were added to the wells at a ratio of 10 parasites per macrophage, and cultures were incubated further for 48 h at 37 °C for 5% CO2. Free parasites were removed by extensive washing with RPMI 1640 medium, and infected macrophages were treated with malvidin (30.18, 60.37, and 120.74 µM), echioidinin (35.18, 70.36, and 140.72 µM), or AmpB (2.70 and 5.41 µM) for 48 h at […] in 5% CO2. After fixation with 4% paraformaldehyde, cells were washed and stained with Giemsa, and the infection percentage, the number of amastigotes per infected macrophage, and the reduction in the infection percentage were determined by counting 200 cells in triplicate, using an optical microscope.

[5] = system: L. braziliensis-infected murine macrophages; test: Treatment of infected macrophages; settings: 48 h
Procedure: as §3

[6] = system: L. amazonensis-infected murine macrophages; test: Treatment of infected macrophages; settings: 48 h
Procedure: as §3

[7] = system: L. infantum axenic amastigotes; test: In vitro antileishmanial activity, axenic amastigotes (MTT); settings: for Selectivity Index (SI) Axenic amastigotes L. infantum: ratio between CC50 (macrophages) and IC50
Procedure: as §1, §2

[8] = system: L. amazonensis axenic amastigotes; test: as above
Procedure: as §1, §2

[9] = system: L. braziliensis axenic amastigotes; test: as above
Procedure: as §1, §2

[10] = Cytotoxicity assay in macrophages (MTT); settings: mouse, murine macrophages, mean ± SD
Procedure: Cytotoxicity was evaluated ex vivo in murine macrophages and human red blood cells, for which concentrations inhibiting 50% of macrophages (CC50) and red blood cells (RBC50) were determined. […] Cells were incubated in RPMI 1640 medium for 48 h (murine macrophages) or 1 h (red blood cells) at 37 °C in 5% CO2. Macrophage viability was assessed using the MTT method. The red blood cell suspension was centrifuged at 1000× g for 10 min at 4 °C, after which the percentage of cell lysis was evaluated spectrophotometrically at 570 nm. The hemolysis was determined by replacing the natural products with an equal volume of phosphate-buffered saline with a pH of 7.4 (PBS—negative control) or distilled water (positive control). CC50 and RBC50 values were calculated by sigmoidal regression of dose–response curves in Microsoft Excel software (version 10.0). SI was calculated as the ratio between CC50 and IC50 values.

[11] = system: O+ human red blood cells; test: Hemolytic activity; settings: lysis of 50% of O+ human red blood cells; 1 h; mean ± SD
Procedure: Cytotoxicity was evaluated ex vivo in murine macrophages and human red blood cells, for which concentrations inhibiting 50% of macrophages (CC50) and red blood cells (RBC50) were determined. Briefly, murine cells (5 × 10^5) or a 5% human red blood cells suspension were incubated in the presence of malvidin (0 to 301.84 µM) or echioidinin (0 to 356.76 µM) AmpB (0 to 10.82 µM) was used as control. Cells were incubated in RPMI 1640 medium for 48 h (murine macrophages) or 1 h (red blood cells) at 37 °C in 5% CO2. Macrophage viability was assessed using the MTT method. The red blood cell suspension was centrifuged at 1000× g for 10 min at 4 °C, after which the percentage of cell lysis was evaluated spectrophotometrically at 570 nm. The hemolysis was determined by replacing the natural products with an equal volume of phosphate-buffered saline with a pH of 7.4 (PBS—negative control) or distilled water (positive control). CC50 and RBC50 values were calculated by sigmoidal regression of dose–response curves in Microsoft Excel software (version 10.0). SI was calculated as the ratio between CC50 and IC50 values.

[12] = ratio between CC50 (macrophages) and IC50

COc1cc(-c2[o+]c3cc(O)cc(O)c3cc2O)cc(OC)c1O [Malvidin, malvidin]
IC50 ([1]; Leishmania amazonensis, 48 h, read-out: IC50 (µM) Stationary Promastigotes L. amazonensis): 198 ± 17 µM | Selectivity Index (SI) Stationary Promastigotes L. amazonensis [1, 12]: 14.70 | IC50 ([2]; Leishmania infantum, 48 h, read-out: IC50 (µM) Stationary Promastigotes L. infantum): 141 ± 26 µM | Selectivity Index (SI) Stationary Promastigotes L. infantum [2, 12]: 20.70 | IC50 ([3]; Leishmania braziliensis, 48 h, read-out: IC50 (µM) Stationary Promastigotes L. braziliensis): 164 ± 19 µM | Selectivity Index (SI) Stationary Promastigotes L. braziliensis [3, 12]: 17.60 | Infection After Treatment (%) ([4]; 30.18 µM): 61.20% | Infectiveness Reduction (%) ([4]; 30.18 µM): 17.85% | Number of Amastigotes per Macrophage ([4]; 30.18 µM): 4.70 | Infection After Treatment (%) ([4]; 60.37 µM): 55.60% | Infectiveness Reduction (%) ([4]; 60.37 µM): 25.37% | Number of Amastigotes per Macrophage ([4]; 60.37 µM): 3.70 | Infection After Treatment (%) ([4]; 120.74 µM): 49.80% | Infectiveness Reduction (%) ([4]; 120.74 µM): 33.15% | Number of Amastigotes per Macrophage ([4]; 120.74 µM): 2.70 | Infection After Treatment (%) ([5]; 30.18 µM): 52.10% | Infectiveness Reduction (%) ([5]; 30.18 µM): 24.16% | Number of Amastigotes per Macrophage ([5]; 30.18 µM): 4.40 | Infection After Treatment (%) ([5]; 60.37 µM): 48.70% | Infectiveness Reduction (%) ([5]; 60.37 µM): 29.11% | Number of Amastigotes per Macrophage ([5]; 60.37 µM): 5.40 | Infection After Treatment (%) ([5]; 120.74 µM): 39.80% | Infectiveness Reduction (%) ([5]; 120.74 µM): 42.07% | Number of Amastigotes per Macrophage ([5]; 120.74 µM): 3.30 | Infection After Treatment (%) ([6]; 30.18 µM): 75.60% | Infectiveness Reduction (%) ([6]; 30.18 µM): 18.09% | Number of Amastigotes per Macrophage ([6]; 30.18 µM): 3.30 | Infection After Treatment (%) ([6]; 60.37 µM): 61.10% | Infectiveness Reduction (%) ([6]; 60.37 µM): 33.80% | Number of Amastigotes per Macrophage ([6]; 60.37 µM): 2.80 | Infection After Treatment (%) ([6]; 120.74 µM): 59.30% | Infectiveness Reduction (%) ([6]; 120.74 µM): 35.75% | Number of Amastigotes per Macrophage ([6]; 120.74 µM): 3.80 | IC50 ([7]; Leishmania infantum, 48 h, read-out: IC50 (µM) Axenic amastigotes L. infantum): 174 ± 19 µM | Selectivity Index (SI) Axenic amastigotes L. infantum [7]: 16.70 | Selectivity Index (SI) Axenic amastigotes L. infantum ([7]; listed as malvidin): 14.70 | IC50 ([8]; Leishmania amazonensis, 48 h, read-out: IC50 (µM) Axenic amastigotes L. amazonensis): 258 ± 17 µM | Selectivity Index (SI) Axenic amastigotes L. amazonensis [8, 12]: 11.30 | IC50 ([9]; Leishmania braziliensis, 48 h, read-out: IC50 (µM) Axenic amastigotes L. braziliensis): 227.9 ± 1 µM | Selectivity Index (SI) Axenic amastigotes L. braziliensis [9, 12]: 12.70 | CC50 at 48 h [10]: 2920 ± 80 µM | RBC50 [11]: 3120.13 ± 107 µM

— article PMC11722285, “Exploring the Potential of Malvidin and Echiodinin as Probable Antileishmanial Agents Through In Silico Analysis and In Vitro Efficacy” (Molecules, 2025)
